Experimental data reported in US11076597B2, “High stress resistant plant growth regulator and preparation method and use thereof” (SHANGHAI INSTITUTES FOR BIOLOGICAL SCIENCES, CHINESE …, priority 2015, dated 2021).

Legend:
Type in all cases: biochemical
[1] = biological target: T1, PYL7 receptor-HAB1 protein phosphatase complex (Arabidopsis thaliana, UniProt Q1ECF1); experiment: AlphaScreen assay, PYL7 receptor binding to HAB1; design: unit not given beside the values; details: fraction of the EC50 of ABA; FIG. 2d
T1 construct: made in house; host or cells: E. coli BL21 (DE3)
T1 sequence (Q1ECF1 1-211): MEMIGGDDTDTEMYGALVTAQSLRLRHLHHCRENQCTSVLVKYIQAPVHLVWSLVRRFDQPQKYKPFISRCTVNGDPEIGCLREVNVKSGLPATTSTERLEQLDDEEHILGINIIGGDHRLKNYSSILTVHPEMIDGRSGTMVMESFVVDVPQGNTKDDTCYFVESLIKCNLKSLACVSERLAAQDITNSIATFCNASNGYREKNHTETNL
T1 sequence (Q9CAJ0 172-511 partner limits assumed): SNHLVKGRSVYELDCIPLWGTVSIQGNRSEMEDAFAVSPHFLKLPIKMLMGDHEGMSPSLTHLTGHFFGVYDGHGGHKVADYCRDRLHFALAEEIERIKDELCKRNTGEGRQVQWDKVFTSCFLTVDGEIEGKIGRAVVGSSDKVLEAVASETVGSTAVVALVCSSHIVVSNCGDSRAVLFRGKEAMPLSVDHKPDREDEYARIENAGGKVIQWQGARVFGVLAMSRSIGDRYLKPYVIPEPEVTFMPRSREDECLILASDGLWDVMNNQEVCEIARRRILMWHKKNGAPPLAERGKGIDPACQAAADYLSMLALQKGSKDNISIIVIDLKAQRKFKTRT
Description: (§1) The AlphaScreen kit (available from Perkin Elmer) was used, and the method was as follows: a 10× buffer (50 mM MOPS, pH 7.4, 50 mM NaF, 50 mM CHAPS, 0.1 mg/ml bovine serum albumin) diluted at 1:10, each of 100 nM HAB1 with Biotin tag sequence and PYR1/PYL1/PYL2/PYL7/GmPYL6/OsPYL2 protein with dual tags of 6×His and SUMO sequences, corresponding concentrations of (+)-ABA/0224/0304/0706/0708/0713/0715/0428/NC0F4, and 5 μg/ml donor beads and acceptor beads (available from Perkin Elmer) were contained in 150 μl of experimental system. After incubating for 1.5 hours at room temperature in the dark, it was placed into an Envision Plate Reader (available from Perkin Elmer) under the programmed AlphaScreen procedure for readings.
(§2) AlphaScreen technology was used to test the ability of the compounds of the present invention to promote PYL receptor binding to PP2C protein phosphatase (HAB1).

[2] = biological target: T2, PYR1 receptor-HAB1 protein phosphatase complex (Arabidopsis thaliana, UniProt O49686); experiment: AlphaScreen assay, PYR1 receptor binding to HAB1; details: fraction of the EC50 of ABA; FIG. 2a, 2h
T2 construct: made in house; host or cells: E. coli BL21 (DE3)
T2 sequence (O49686 1-191): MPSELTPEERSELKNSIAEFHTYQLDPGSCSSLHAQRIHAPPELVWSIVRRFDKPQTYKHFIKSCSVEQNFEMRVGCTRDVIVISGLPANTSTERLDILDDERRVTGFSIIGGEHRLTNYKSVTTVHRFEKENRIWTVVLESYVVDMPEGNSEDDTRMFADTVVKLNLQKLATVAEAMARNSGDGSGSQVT
T2 sequence (Q9CAJ0 172-511 partner limits assumed): T1 sequence (Q9CAJ0 172-511 partner limits assumed)
Description: as §1, §2

[3] = biological target: T3, PYL1 receptor-HAB1 protein phosphatase complex (Arabidopsis thaliana, UniProt Q8VZS8); experiment: AlphaScreen assay, PYL1 receptor binding to HAB1; details: fraction of the EC50 of ABA; FIG. 2b
T3 construct: made in house; host or cells: E. coli BL21 (DE3)
T3 sequence (Q8VZS8 36-211): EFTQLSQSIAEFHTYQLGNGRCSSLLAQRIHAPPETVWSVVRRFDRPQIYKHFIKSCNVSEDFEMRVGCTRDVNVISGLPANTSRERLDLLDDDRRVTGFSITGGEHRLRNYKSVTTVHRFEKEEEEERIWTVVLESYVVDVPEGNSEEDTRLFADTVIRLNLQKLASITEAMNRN
T3 sequence (Q9CAJ0 172-511 partner limits assumed): T1 sequence (Q9CAJ0 172-511 partner limits assumed)
Description: as §1, §2

SMILES	EC50 value with PYL7 receptor-HAB1 complex as fraction of that of ABA [1]	EC50 value with PYR1 receptor-HAB1 complex as fraction of that of ABA [2]	EC50 value with PYL1 receptor-HAB1 complex as fraction of that of ABA [3]
CCCN1C(=O)OC(C)c2cc(NS(=O)(=O)Cc3c(F)c(F)c(C)c(F)c3F)ccc21 (stereo not drawn) [Compound 0224]	1/10	1/40	⅛
CCCN1C(=O)OC(C)(C)c2cc(NS(=O)(=O)Cc3c(F)c(F)c(C)c(F)c3F)ccc21 [Compound 0304]	1/10	1/24	1/7
